In patent US20220218707A1, “USE OF COMPOSITION OF IMATINIB OR DERIVATIVE THEREOF IN PREPARATION OF DRUG FOR PREVENTING, TREATING, AND CONTROLLING ADDICTION RELAPSE” (Wuhan University, priority 2019, published 2022):
Structures can show the parent of a compound that is named as a salt. Where two headings read alike, the source gives them in different places.

Assays:
c-Kit [1] = molecular target: T1, c-Kit (Rattus norvegicus, UniProt F7EWK5); details: acute ethanol administration
[2] = Naloxone-precipitated withdrawal symptoms after morphine-induced CPP (jump times, body weight); details: imatinib mesylate 15, 30, and 45 mg/kg with morphine 5 mg/kg, naloxone 2 mg/kg s.c.; combination or compound preparation
SD rats [3] = assay: Development of high-sugar and high-fat food-induced CPP; type: in vivo
SD rats [4] = system: SD rats
SD rats [5] = details: for drug-seeking behavior and relapse after cocaine addiction: imatinib mesylate 20 and 30 mg/kg
SD rats [6] = assay: Ethanol sensitization model; type: in vivo; details: imatinib mesylate 15, 20, or 30 mg/kg
SD rats [7] = system: SD rats; remark: listed apart in the source
SD rats [8] = system: SD rats; remark: listed apart in the source
SD rats [9] = system: SD rats; remark: listed apart in the source
SD rats [10] = details: direct administration; any dose of imatinib mesylate
SD rats [11] = system: SD rats; remark: listed apart in the source
SD rats [12] = details: imatinib mesylate 1, 5, 10, 20, or 30 mg/kg i.p.
SD rats [13] = details: imatinib mesylate 1, 5, 10, 20, and 30 mg/kg i.p.
SD rats [14] = details: for morphine tolerance and heat pain threshold in CFA rats: day 6 after model establishment
SD rats [15] = assay: Nicotine withdrawal symptoms (spontaneous activity); type: in vivo
Excerpt: Test instrument: Conditional place preference (CPP) test apparatus (the same as that in Example 19); and spontaneous activity detecting apparatus (developed by the Institute of Chinese Materia Medica, China Academy of Chinese Medical Sciences). The test was automatically controlled by a computer. The apparatus includes four spontaneous activity observation chamber, a video synthesizer, a video pattern sampling card, and analysis software. The system performs video tracking of the rat activity and automatically records the rat activity track and activity times. The spontaneous activity evaluation index is the total activity times in a certain period of time (such as 60 min), and an increase in the total activity times indicates an increase in spontaneous activity. […] In addition, a physiological saline+physiological saline group without nicotine treatment was used as the control group. […] After 60 min, a spontaneous activity detecting apparatus was used to detect the spontaneous activities.

SD rats [16] = assay: Morphine sensitization model (spontaneous activity); type: in vivo
SD rats [17] = system: SD rats; remark: listed apart in the source
Excerpt: Groups: A total of 14 groups (n=10) were included.
The rest process was the same as that in Example 3.

c-Kit [18] = molecular target: T1, c-Kit; details: acute morphine 10 mg/kg s.c.; not in other brain regions
c-Kit [19] = molecular target: T1, c-Kit; details: acute nicotine 0.5 mg/kg s.c.; not in other brain regions
[20] = imatinib mesylate 1, 5, and 10 mg/kg, ethanol 0.75 g/kg for training CPP
[21] = imatinib mesylate 1 and 5 mg/kg, ethanol 0.5 g/kg for training CPP
[22] = imatinib mesylate 10, 15, 20, and 30 mg/kg, ethanol 0.5 g/kg for training CPP
[23] = imatinib mesylate 15, 20, and 30 mg/kg, ethanol 0.75 g/kg for training CPP

T1 sequence (F7EWK5 26-978): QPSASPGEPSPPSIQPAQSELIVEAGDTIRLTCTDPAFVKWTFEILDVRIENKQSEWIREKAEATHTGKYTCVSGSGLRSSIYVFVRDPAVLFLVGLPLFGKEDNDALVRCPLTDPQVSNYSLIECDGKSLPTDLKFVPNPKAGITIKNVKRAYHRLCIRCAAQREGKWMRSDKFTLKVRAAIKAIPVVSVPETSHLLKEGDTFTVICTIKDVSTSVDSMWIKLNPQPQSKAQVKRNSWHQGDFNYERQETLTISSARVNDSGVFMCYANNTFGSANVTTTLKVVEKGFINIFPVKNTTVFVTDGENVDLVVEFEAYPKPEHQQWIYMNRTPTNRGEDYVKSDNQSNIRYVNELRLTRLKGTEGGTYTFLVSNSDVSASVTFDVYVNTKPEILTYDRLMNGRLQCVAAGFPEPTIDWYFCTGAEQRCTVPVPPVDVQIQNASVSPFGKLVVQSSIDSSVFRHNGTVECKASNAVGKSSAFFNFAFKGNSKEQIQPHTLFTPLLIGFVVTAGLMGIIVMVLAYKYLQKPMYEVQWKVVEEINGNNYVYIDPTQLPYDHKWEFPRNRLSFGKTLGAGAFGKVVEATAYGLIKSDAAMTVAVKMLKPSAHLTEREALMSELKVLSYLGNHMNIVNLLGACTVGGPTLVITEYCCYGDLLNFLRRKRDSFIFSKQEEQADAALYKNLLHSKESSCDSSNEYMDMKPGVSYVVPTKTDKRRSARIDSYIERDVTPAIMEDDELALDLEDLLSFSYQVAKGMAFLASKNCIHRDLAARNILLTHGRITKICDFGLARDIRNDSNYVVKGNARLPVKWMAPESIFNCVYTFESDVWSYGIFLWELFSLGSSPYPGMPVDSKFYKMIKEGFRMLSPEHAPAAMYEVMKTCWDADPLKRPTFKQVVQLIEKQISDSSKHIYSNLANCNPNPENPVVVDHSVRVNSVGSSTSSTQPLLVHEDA

## CCO [ethanol]
c-Kit [1]
  activation of c-kit receptor in neurons in nucleus accumbens: specifically activated

## Cc1ccc(NC(=O)c2ccc(CN3CCN(C)CC3)cc2)cc1Nc1nccc(-c2cccnc2)n1 [imatinib mesylate]
[2]
  morphine withdrawal symptoms (jump times, changes in body weight): can alleviate the withdrawal symptoms
SD rats [3]; imatinib mesylate 1, 5, and 10 mg/kg i.p.
  development of addiction to high-sugar and high-fat food (CPP): no significant effect on the development of addiction to high-sugar and high-fat food
SD rats [3]; imatinib mesylate 20 and 30 mg/kg i.p.
  development of addiction to high-sugar and high-fat food (CPP): can significantly inhibit the development of addiction to high-sugar and high-fat food
SD rats [4]; direct administration, all doses of imatinib mesylate
  priming with high-sugar and high-fat food after 1 week: cannot prevent the rats from being primed
SD rats [4]; imatinib mesylate 10, 20, and 30 mg/kg, substance cue, environmental cue or direct administration
  food-seeking behavior (CPP): can inhibit the food-seeking behavior
SD rats [5]; direct administration of imatinib mesylate 20 and 30 mg/kg
  priming (relapse) after cocaine addiction: the rats are still primed
SD rats [5]; unconditioned stimulus cocaine 3 mg/kg
  drug-seeking behavior and relapse after cocaine addiction: can prevent the drug-seeking behavior and relapse
SD rats [5]; unconditioned stimulus cocaine 4 mg/kg
  drug-seeking behavior and relapse after cocaine addiction: can only inhibit the drug-seeking behavior, and cannot prevent relapse
SD rats [6]; ethanol 0.75 g/kg for 5 consecutive days
  development of ethanol sensitization: the development of ethanol sensitization in rats is inhibited
SD rats [6]; ethanol challenge on day 11
  expression of ethanol sensitization: the expression of ethanol sensitization in rats is inhibited
SD rats [7]; direct administration of imatinib mesylate
  priming (relapse) after challenge with a small dose of ethanol: are all primed
SD rats [7]; imatinib mesylate 15 and 30 mg/kg, ethanol 0.75 g/kg for training CPP
  CPP after ethanol addiction, all treatment groups: can significantly reduce the CPP
SD rats [7]; unconditioned stimulus ethanol 0.5 g/kg, imatinib mesylate 20 and 30 mg/kg
  drug-seeking behavior and relapse after ethanol addiction: can only inhibit the drug-seeking behavior, and cannot prevent relapse
SD rats [8]; [20]
  development of ethanol-induced CPP: no significant effect on the development of CPP
SD rats [8]; [21]
  development of ethanol-induced CPP: no significant effect on the development of CPP
SD rats [8]; [22]
  development of ethanol-induced CPP: can significantly relieve CPP
SD rats [8]; [23]
  development of ethanol-induced CPP: can significantly relieve CPP
SD rats [9]; 1, 5, and 10 mg/kg i.p., morphine 10 mg/kg s.c.
  morphine tolerance (heat pain threshold): do not have this inhibitory effect
SD rats [9]; 20 and 30 mg/kg i.p., morphine 10 mg/kg s.c.
  morphine tolerance (heat pain threshold): can prevent the development of CPP
SD rats [9]; 20 and 30 mg/kg i.p., morphine 10 mg/kg s.c., listed as Imatinib sulfonate
  morphine tolerance (heat pain threshold): can significantly reduce the expression of morphine-induced tolerance
SD rats [9]; dose ratio to morphine 2:1 or greater
  minimum dose of imatinib mesylate preventing morphine tolerance: 10 mg/kg
SD rats [9]; imatinib mesylate 10, 20, and 30 mg/kg, tolerance induced by 5 mg/kg morphine
  morphine tolerance (heat pain threshold): can prevent the development of morphine tolerance
SD rats [9]; low dose of 5 mg/kg, rats
  treatment and prevention of morphine tolerance: can be used in the treatment and prevention of morphine tolerance in rats
SD rats [10]
  gambling behavior (choice): no significant effect
SD rats [11]; imatinib mesylate 1, 5, and 10 mg/kg i.p., morphine 10 mg/kg for training CPP
  CPP (drug-seeking behavior) after morphine addiction: no obvious effect
SD rats [11]; imatinib mesylate 1 and 5 mg/kg i.p., morphine 5 mg/kg for training CPP
  CPP (drug-seeking behavior) after morphine addiction: no obvious effect
SD rats [11]; imatinib mesylate 10, 20, and 30 mg/kg i.p., morphine 5 mg/kg for training CPP
  CPP (drug-seeking behavior) after morphine addiction: can significantly relieve CPP and prevent it from being primed
SD rats [11]; imatinib mesylate 20 and 30 mg/kg i.p., morphine 10 mg/kg for training CPP
  CPP (drug-seeking behavior) after morphine addiction: can significantly relieve CPP and prevent it from being primed
SD rats [12]
  hind paw licking time, imatinib mesylate+physiological saline compared with physiological saline+physiological saline: no obvious changes
SD rats [12]; morphine 10 mg/kg s.c.
  hind paw licking time, imatinib mesylate+morphine compared with morphine+physiological saline: no obvious changes
SD rats [13]
  HPT, imatinib mesylate+physiological saline compared with physiological saline+physiological saline: no obvious change
SD rats [13]; morphine 10 mg/kg s.c.
  heat pain threshold, imatinib mesylate+morphine compared with morphine+physiological saline: no obvious change
SD rats [14]; imatinib mesylate 1, 5, and 10 mg/kg
  morphine tolerance and heat pain threshold in CFA rats: have no this effect
SD rats [14]; imatinib mesylate 20 and 30 mg/kg
  morphine tolerance and heat pain threshold in CFA rats: can significantly prevent the development of morphine tolerance
SD rats [14]; days 4 and 5 after model establishment, morphine 10 mg/kg s.c.
  heat pain threshold, imatinib mesylate+morphine compared with morphine+physiological saline: no obvious change
SD rats [15]; imatinib mesylate 10, 20, and 30 mg/kg, addiction trained by 0.25 mg/kg of nicotine
  nicotine withdrawal symptoms (spontaneous activities): can differently alleviate the withdrawal symptoms
SD rats [15]; imatinib mesylate 20 and 30 mg/kg, addiction trained by 0.5 mg/kg of nicotine
  nicotine withdrawal symptoms (spontaneous activities): can alleviate the withdrawal symptoms
SD rats [16]; imatinib mesylate 30 mg/kg i.p. on day 11 before morphine 5 mg/kg challenge
  expression of morphine sensitization: the expression of morphine sensitization in rats is inhibited
SD rats [16]; imatinib mesylate 30 mg/kg with morphine 10 mg/kg for 5 consecutive days
  development of morphine sensitization: the development of morphine sensitization in rats is inhibited
SD rats [17]; [20]
  CPP (drug-seeking behavior) after ethanol addiction: no obvious effect
SD rats [17]; [21]
  CPP (drug-seeking behavior) after ethanol addiction: no obvious effect
SD rats [17]; [22]
  CPP (drug-seeking behavior) after ethanol addiction: can significantly relieve CPP and prevent it from being primed
SD rats [17]; [23]
  CPP (drug-seeking behavior) after ethanol addiction: can significantly relieve CPP and prevent it from being primed

## CNC1(C)C2CCC(C2)C1(C)C (centres unmarked) [mecamylamine]
SD rats [15]; mecamylamine 0.5 mg/kg, withdrawal symptoms aroused
  spontaneous activities of rats with nicotine addiction: the spontaneous activities decreases significantly

## CN1CC[C@]23c4c5ccc(O)c4O[C@H]2[C@@H](O)C=C[C@H]3[C@H]1C5 [morphine]
c-Kit [18]
  activation of c-kit receptor and downstream signaling molecules in neurons in nucleus accumbens: specifically activated

## CN1CCCC1c1cccnc1 (centres unmarked) [nicotine]
c-Kit [19]
  activation of c-kit receptor and downstream signaling molecules in neurons in nucleus accumbens: specifically activated
